# Key:
# Type in all cases: cell-based
# KCNQ2/3 heteromultimers = target: T1, KCNQ2/3 heteromultimers (Rattus norvegicus, UniProt O88943+O88944); experiment: Whole-cell voltage clamp of CHO cells expressing KCNQ2/3 heteromultimers
# T1 construct: expressed in transfected cells
# Description: (§1) Cell culture and transient transfection—Chinese Hamster Ovary (CHO) cells were grown in 50/50 DMEM/F12 (Cellgro) with 10% FBS (Gibco), 100 U/ml penicillin (Cellgro), 100 μg/ml streptomycin (Cellgro) and 2 mM L-glutamine (Gibco). At 24 hours before transfection, cells were split and plated in 60 mm dishes and were transfected with Lipofectamine2000™ reagent (Invitrogen) according to the manufacturer's instruction. At 24 hours after transfection, cells were split and re-plated onto coverslips coated with poly-L-lysine (Sigma). Plasmid expressing CD4 cDNA as a marker was cotransfected with the channel cDNAs of hKCNQ1 (from Dr. Michael Sanguinetti), hKCNQ4 (from Dr. Vitya Vardanyan), rKCNQ2, rKCNQ3, and hKCNQ5 (from Drs. David McKinnon, Mark Shapiro, and Thomas Jentsch). Prior to recording, anti-CD4 Dynabeads (Dynal. Biotech. Inc.) were added into the medium to allow for identification of the transfected cells. Stable lines expressing Kv2.1, hERG, and Kv4.2 were generated by standard protocols using pcDNA3.1 and maintained at complete medium supplemented with 500 μg/ml G418. The N-type calcium channel stable line was a kind gift from Drs. Diane Lipscombe and David Yue.
# (§2) Electrophysiological Recording—Standard whole-cell recording was used. Pipettes were pulled from borosilicate glass capillaries (TW150-4, World Precision Instruments, Sarasota, Fla.). When filled with the intracellular solution, the pipettes have resistances of […]. During the recording, constant perfusion of extracellular solution was maintained using a BPS perfusion system (ALA, Westbury, N.Y.). Pipette solution contained (mM): KCl 145, MgCl2 1, EGTA 5, HEPES 10, MgATP 5 (pH 7.3); extracellular solution contained (mM): NaCl 140, KCl 3, CaCl2 2, MgCl2 1.5, HEPES 10, glucose 10 (pH 7.4). Current and voltage were recorded using an Axopatch-200A amplifier, filtered at 1 kHz and digitized using a DigiData 1322A with pClamp 9.2 software (Axon Instruments, Foster City, Calif.). Series resistance compensation was also used and set to 60-80%.
# (§3) Data and Statistical Analysis—Patch-clamp data were preprocessed using Clampfit 9.2 (Axon Instruments, Foster City, Calif.) and then analyzed in Origin 7 (OriginLab, Northampton, Mass.). The activation curve was fitted by the Boltzmann equation: G=(Gmax−Gmin)/[1+exp[(V−V1/2)/S]]+Gmin, where Gmax is the maximum conductance, Gmin is the minimum conductance, V1/2 is the voltage for half of the total numbers of channels to open, and S is the slope factor. The dose response curve was fitted by the Hill equation: E=Emax/(1+(EC50/C)^P), where Emax is the maximum response, C is the drug concentration, EC50 is the drug concentration producing half of the maximum response, and P is the Hill coefficient. The deactivation trace was fitted by the standard exponential equation: I(t)=ΣIi*exp(−t/τi), where I is the current, t is the time and τ is the time constant. Data are presented as means±SE. Significance was estimated using paired two-tailed Student's t-test.
# KCNQ2(R207W) = target: T2, KCNQ2(R207W) (Rattus norvegicus, UniProt O88943, R207W); experiment: Whole-cell recording of KCNQ2(R207W) BFNC mutant in CHO cells; conditions: 10 μM ZnPy
# T2 construct: expressed in transfected cells; host or cells: CHO cells, transient
# Description: FIG. 11. ZnPy effects on BFNC mutant channels expressed in CHO cells. A. whole-cell currents of KCNQ2(R207W), KCNQ2(Y284C), and KCNQ2(A306T) were recorded in the absence (left) and presence (right) of 10 μM ZnPy, Vh was −80 mV, in 10 mV voltage steps from −70 mV to +50 mV. B. a histogram plotting potentiation effects on KCNQ2 wild type (wt) and BFNC mutants (R207W, Y284C and […]) by ZnPy (filled box) and retigabine (open box) (n≧4, * p<0.001, ** p<0.05).
# Mutagenesis—Starting from KCNQ cDNAs, the KCNQ2 point mutants were constructed by recombinant PCR and verified by sequencing.
# as §2, with “Series resistance compensation was also used and set to 60-80%.” left out
# KCNQ2 [1] = target: T3, KCNQ2 (Rattus norvegicus, UniProt O88943); experiment: Whole-cell voltage clamp of CHO cells expressing KCNQ2; parameters: expressed in transfected cells; host or cells: CHO cells
# Description: as §1, §2, §3
# KCNQ2 [2] = target: T3, KCNQ2; experiment: Non-radioactive rubidium efflux assay (KCNQ2 screen, HEK 293); parameters: expressed in transfected cells
# Description: To identify compounds with agonistic activities for M currents, stable cell lines for both KCNQ2 and KCNQ2/3 were generated. Under a pre-calibrated condition of medium-level rubidium efflux responses, more than 20,000 small molecule compounds were screened at a concentration of 10 μM. The selected condition allowed for identification of both inhibitors and potentiators. Selected compounds either increased or decreased the rubidium responses by more than 15% when compared to the control. A subset of the compounds were selected and validated for both potency and specificity.
# KCNQ2 screen—HEK 293 cells stably expressing rat KCNQ2 were resuspended in DMEM/F12 medium and plated at a density of 4×10^4/well in poly-L-Lysine coated 96-well plates. Cells were then incubated at 37° C. with 5% CO2 overnight. 30 μl/well DMEM/F12 medium containing 30 mM RbCl was added to the cells the next day, followed by incubation for an additional 3 hours. Cell plating and reagent dispensing were done using a Multidrop 384 dispenser (Thermo Electron Corporation).
# Compound addition and Rb^+ efflux assay were programmed and performed on a Cybi-Well™ system and Tekbench liquid handling system (Tekcel Inc., Hopkinton, Mass.), respectively. […] Rb^+ concentrations in both supernatant and cell lysates were measured by atomic absorption spectrometry using an ICR8000 instrument (Aurora Biomed, Vancouver, Canada).
smiles,measurement,setting,value
"S=c1ccccn1[O][Zn][O]n1ccccc1=S [ZnPy, Zinc Pyrithione]",hyperpolarizing shift of V1/2,KCNQ2/3 heteromultimers; 10 μM ZnPy,24.4±0.8 mV
same,V1/2 in presence of compound,"KCNQ2/3 heteromultimers; 10 μM ZnPy, control −20.3±0.8 mV",−44.7±1.9 mV
same,activation time constant,"KCNQ2/3 heteromultimers; +50 mV, with ZnPy, control 75.6±4.9",157.8±23.5 milliseconds
same,Hill coefficient of dose dependent curve,KCNQ2/3 heteromultimers; KCNQ2/3,1.4
same,EC50,"KCNQ2/3 heteromultimers; KCNQ2/3 heteromultimers, read-out: EC50 of midpoint of activation voltage (V1/2) shift",2400 ± 400 nM
same,deactivation time constant,"KCNQ2/3 heteromultimers; −120 mV, 10 μM ZnPy, control 12.4±0.7",41.9±6.4 milliseconds
same,fold current increase,KCNQ2(R207W),more than 3 fold
same,effect on membrane potential of CHO cells expressing KCNQ2,KCNQ2 [1]; 10 μM ZnPy,significant hyperpolarization
same,left (hyperpolarizing) shift of V1/2,KCNQ2 [1]; 10 μM ZnPy,25.5±1.5 mV
same,effect on TEA-blocked KCNQ2 current,KCNQ2 [1]; 10 μM ZnPy extracellular in presence of 20 mM TEA,unable to reverse the TEA inhibition
same,potentiation on intracellular application,"KCNQ2 [1]; 10 μM ZnPy in pipette solution, with or without EGTA",induced no potentiation
same,V1/2 on internal perfusion,"KCNQ2 [1]; 10 μM ZnPy through recording pipette, 0 to 12 minutes",consistent and identical to that of KCNQ2 control
same,effect on channel activity,"KCNQ2 [1]; 10 μM ZnPy, extracellular",potentiated
same,V1/2 (voltage required for half maximal activation) in presence of compound,"KCNQ2 [1]; 10 μM ZnPy, control −18.9±0.6 mV",−44.4±0.9 mV
same,activation time constant,"KCNQ2 [1]; +50 mV, with ZnPy, control 163.5±13.7",293.1±11.2 milliseconds
same,Hill coefficient of dose dependent curve,KCNQ2 [1]; KCNQ2,1.8
same,EC50,"KCNQ2 [1]; KCNQ2 alone, read-out: EC50 of midpoint of activation voltage (V1/2) shift",1500 ± 300 nM
same,deactivation time constant,"KCNQ2 [1]; −120 mV, 10 μM ZnPy, control 14.1±0.6",54.4±0.9 milliseconds
same,elevation of KCNQ activity by rubidium efflux,KCNQ2 [2],unusual potency in elevating KCNQ activities
